Type in all cases: cell-based, human
One experiment has as its system KYSE270 cells. Put plainly: Cell viability of KYSE270 esophageal cancer cells with siRNA of control or RAD51 (Example 5). The settings on record: siRNA of RAD51, drug added 24 h later, 5 days culture, FIG. 6B. As for the experimental part:
KYSE270 cells and KYSE30 cells (human esophageal squamous cell carcinoma cell line) were purchased from JCRB Cell Bank, National Institutes of Biomedical Innovation, Health and Nutrition (Osaka, Japan). KYSE270 cells and KYSE30 cells were cultured in a medium in which RPMI1640 and Ham's F12 medium (both of which were manufactured by FUJIFILM Wako Pure Chemical Corporation, Osaka, Japan) were mixed in equal amounts and 5% FBS was added at 37° C. in the presence of 5% CO2.
(§1) A stock solution of Nicaraven was prepared by dissolving Nicaraven in DMEM medium at a final concentration of 40 mM and sterilizing the solution through a filter. Olaparib (Adooq Bioscience, Irvine, CA, USA) was prepared as a stock solution of Olaparib in DMSO (FUJIFILM Wako Pure Chemical Corporation, Osaka, Japan) at a final concentration of 50 mM. […]
FIG. 6A. Protocol of an experiment in which cell viability under Olaparib, Nicaraven or Edaravone treatment on cells having reduced homologous recombination activity was analyzed. siRNA of control or RAD51 was introduced into esophageal cancer cells KYSE270 cells, and 24 hours later, either Olaparib or Nicaraven was added. After 5 days of culture, cell viability was measured.

In another experiment the test system is HeLa cells. Nature of the experiment: Cell viability of HeLa cells with siRNA of control, BRCA1 or RAD51 (drug sensitivity test, Presto Blue; Example 1). Conditions: siRNA of BRCA1 or RAD51, drug added 24 h later, 96 h culture, FIG. 1B/1C. As for the experimental part:
HeLa cells (human cervical cancer cell line) were purchased from ATCC (Manassas, VA, USA). HeLa cells were cultured in DMEM medium (Nissui Pharmaceutical Co., Ltd., Tokyo, Japan) supplemented with 8% Fetal Bovine Serum (FBS) (Biowest Inc., Nuaille, France) and 3% L-glutamine at 37° C. in the presence of 5% CO2.
as §1
HeLa cell suspension adjusted to 5000 cells/ml was seeded in a 96 well plate at 100 μl/well, and the next day, siRNA was introduced, followed by addition of Olaparib or Nicaraven. One hundred twenty hours after gene introduction and Olaparib addition, Hela cells were replaced in a medium to which Presto Blue assay (Thermo-Fisher Scientific, Waltham, MA, USA) had been added so as to have a final concentration of 5%, followed by reaction in the presence of 5% CO2 at 37° C. for 1 hour, and then fluorescence was measured under conditions of an excitation wavelength of 520 nm and a fluorescence wavelength of 580 to 640 nm using GloMax (registered trademark) Explorer Multimode Microplate Reader (Promega, Madison, WI, USA). […]

In another experiment the test system is KYSE30 cells. Nature of the experiment: Cell viability of KYSE30 esophageal cancer cells with siRNA of RAD51 (Example 5). The settings on record: siRNA of RAD51, drug added 24 h later, compared with the control, FIG. 7.
Experiment [1] has as its system homologous recombination activity in HeLa cells. Nature of the experiment: Homologous recombination activity (ASHRA, knock-in efficiency by quantitative PCR; Example 2). The settings on record: control cells and cells with BRCA1 and RAD51 expression suppressed; 48 h culture with drug; FIG. 2B. From the text: FIG. 5 illustrates an outline of a method for measuring homologous recombination repair (HR) activity (Assay for site-specific HR activity (ASHRA)) performed in Examples. In this method, a CRISPR/Cas9 system used for genome editing as a site-specific DNA cleaving enzyme is used to create a site-specific DNA double strand break in a target endogenous gene. Then, a fusion gene of a reporter and a target gene is generated by HR between a DNA fragment as a substrate for HR containing the reporter and the target endogenous gene. The production efficiency of the fusion gene of a reporter and a target gene is quantified as the HR repair activity of cell in the cell. For the method for detecting a fusion gene, flow cytometry, Western blotting, quantitative PCR, or the like can be used while changing the reporter. Step 1: Introduce Cas9/guide RNA expression vector and donor vector into cells. […] Step 4: Detecting knock-in efficiency of marker ((1) Western blotting, (2) flow cytometry, (3) quantitative PCR). […]
HeLa cells were seeded on a 3.5 cm dish, and the next day, siRNA was introduced. […] Genome quantitative PCR was performed using Go Taq qPCR master mix (Promega, Madison, WI, USA), measurement was done using CFX96 Touch Real-time PCR detection system (BioRad, Hercules, CA, USA), and knock-in efficiency was calculated by ΔΔCt method. […]

For experiment [2], the system named is γ-H2AX, a marker of DNA double-strand break, in HeLa cells. Nature of the experiment: γ-H2AX intranuclear foci after X-ray irradiation (DNA double-strand break repair, immunostaining; Example 3). The settings on record: drug 30 min before 1.5 Gy X-ray, 24 h after irradiation, FIG. 3. As for the experimental part: After cell seeding, Nicaraven was added. After 30 minutes, the cells were irradiated with 1.5 Gy of X-ray, and after 2 hours and 24 hours, the cells were fixed and immunostained with an anti-γ-H2AX antibody.
Cells in which five or more γ-H2AX intranuclear foci were observed were counted, and the ratio was calculated and represented in a graph. Respective cells in which less than 5, 5 or more and less than 10, 10 or more and less than 20, and 20 or more γ-H2AX intranuclear foci were observed were counted, and the ratio was calculated and represented in a graph (FIG. 3D).

As to `O=C(c1cc(Cc2n[nH]c(=O)c3ccccc23)ccc1F)N1CCN(C(=O)C2CC2)CC1` [Olaparib, reference compound], in the experiment with KYSE270 cells, the “cell viability when expression of RAD51 is suppressed” value was “decreased cell viability in cells in which expression of RAD51 was suppressed, as compared with the control”. For the same molecule, the “cell viability when expression of BRCA1 and RAD51 was suppressed” value with HeLa cells is “decreased cell viability in cells in which expression of BRCA1 and RAD51 was suppressed, as compared with the control”.

`CC(CNC(=O)c1cccnc1)NC(=O)c1cccnc1` (centres unmarked) [Nicaraven]: the “cell viability in cells in which expression of RAD51 was suppressed” value in the experiment with KYSE30 cells is given as “cell viability decreased in cells in which expression of RAD51 was suppressed, as compared with the control”. Also, the “cell viability when expression of RAD51 is suppressed” value with KYSE270 cells is recorded as “cell viability further decreased”. In addition, the homologous recombination activity entry in experiment [1] is on record as “did not affect the homologous recombination ability”. The “cell viability when expression of BRCA1 and RAD51 was suppressed” value in the experiment on HeLa cells is recorded as “cell viability further decreased”. In addition, the “DNA damage remaining (γ-H2AX intranuclear foci), RAD51-suppressed versus control” value in experiment [2] (RAD51 expression suppressed) is “DNA damage remained more remarkably in the state in which the expression of RAD51 was suppressed”. Also, the “DNA damage remaining (γ-H2AX intranuclear foci), control and RAD51-suppressed cells” value in experiment [2] (control and RAD51-suppressed) is “caused DNA damage to remain in both the control and the state in which the expression of RAD51 was suppressed”.

The values above are taken from patent publication US20260315451A1, “MEDICINE FOR TREATING CANCER” (SCIENCE TECHNOLOGY INTERACT CO., LTD., priority 2022, published 2026).
